Data reported in the supplement of paper PMC11451515.

System: SEM cells
Experiment: cell viability relative to DMSO control; higher = less cytotoxic
Details: 48 h
Outline: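 Viability is expressed as a percentage of DMSO wells within each plate, and cell-free wells serve as background. Seeding densities in the 1536-well plates (5 μl) were 500 cells/well for NOMO1 or SEM leukemia cells and 1000 cells/well for P12-Ichikawa. Each line was adapted for at least four passages in each medium. Library compounds in DMSO were pin-dosed at 47 μM to 0.79 nM (11 points, threefold), and CellTiter-Glo One luminescence was read after 48 h at 37°C.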

[1] = HPLM + 10% dialyzed FBS, 0.000781 µM
[2] = HPLM + 10% dialyzed FBS, 0.00234 µM
[3] = HPLM + 10% dialyzed FBS, 0.00702 µM
[4] = HPLM + 10% dialyzed FBS, 0.0211 µM
[5] = HPLM + 10% dialyzed FBS, 0.0632 µM
[6] = HPLM + 10% dialyzed FBS, 0.19 µM
[7] = HPLM + 10% dialyzed FBS, 0.569 µM
[8] = HPLM + 10% dialyzed FBS, 1.71 µM
[9] = HPLM + 10% dialyzed FBS, 5.12 µM
[10] = HPLM + 10% dialyzed FBS, 15.4 µM
[11] = HPLM + 10% dialyzed FBS, 46.1 µM
[12] = RPMI 5 mM glucose + 10% FBS, 0.000781 µM
[13] = RPMI 5 mM glucose + 10% FBS, 0.00234 µM
[14] = RPMI 5 mM glucose + 10% FBS, 0.00702 µM
[15] = RPMI 5 mM glucose + 10% FBS, 0.0211 µM
[16] = RPMI 5 mM glucose + 10% FBS, 0.0632 µM
[17] = RPMI 5 mM glucose + 10% FBS, 0.19 µM
[18] = RPMI 5 mM glucose + 10% FBS, 0.569 µM
[19] = RPMI 5 mM glucose + 10% FBS, 1.71 µM
[20] = RPMI 5 mM glucose + 10% FBS, 5.12 µM
[21] = RPMI 5 mM glucose + 10% FBS, 15.4 µM
[22] = RPMI 5 mM glucose + 10% FBS, 46.1 µM
[23] = RPMI 5 mM glucose + 10% dialyzed FBS, 0.000781 µM
[24] = RPMI 5 mM glucose + 10% dialyzed FBS, 0.00234 µM
[25] = RPMI 5 mM glucose + 10% dialyzed FBS, 0.00702 µM
[26] = RPMI 5 mM glucose + 10% dialyzed FBS, 0.0211 µM
[27] = RPMI 5 mM glucose + 10% dialyzed FBS, 0.0632 µM
[28] = RPMI 5 mM glucose + 10% dialyzed FBS, 0.19 µM
[29] = RPMI 5 mM glucose + 10% dialyzed FBS, 0.569 µM
[30] = RPMI 5 mM glucose + 10% dialyzed FBS, 1.71 µM
[31] = RPMI 5 mM glucose + 10% dialyzed FBS, 5.12 µM
[32] = RPMI 5 mM glucose + 10% dialyzed FBS, 15.4 µM
[33] = RPMI 5 mM glucose + 10% dialyzed FBS, 46.1 µM

Compound	cell viability [1]	cell viability [2]	cell viability [3]	cell viability [4]	cell viability [5]	cell viability [6]	cell viability [7]	cell viability [8]	cell viability [9]	cell viability [10]	cell viability [11]	cell viability [12]	cell viability [13]	cell viability [14]	cell viability [15]	cell viability [16]	cell viability [17]	cell viability [18]	cell viability [19]	cell viability [20]	cell viability [21]	cell viability [22]	cell viability [23]	cell viability [24]	cell viability [25]	cell viability [26]	cell viability [27]	cell viability [28]	cell viability [29]	cell viability [30]	cell viability [31]	cell viability [32]	cell viability [33]
COCCCN1CCC(NC(=O)c2cc(Cl)c(N)c3c2OCC3)CC1	86.8%	90.1%	115%	116%	129%	123%	114%	119%	147%	123%	114%	110%	115%	116%	122%	149%	134%	130%	114%	147%	140%	111%	118%	119%	127%	114%	130%	143%	116%	156%	128%	143%	113%
C[N]1C=C(C2=C1C=CC=C2)\C3=C(\C(=O)NC3=O)C4=C5CC(CN)CC[N]5C6=C4C=CC=C6 (centres undefined)	88.4%	97.6%	92.2%	107%	75.4%	102%	108%	99.5%	86.3%	19.3%	3.63%	100%	108%	98.1%	107%	66.6%	111%	95%	86%	79.1%	31.8%	3.05%	89.9%	108%	105%	107%	86.1%	95.8%	111%	107%	88.4%	38.6%	7.7%
COC1=CC=C(C=C1)C/2=C/OC3=C(C(=CC(=C3)O)O)C2=O	108%	124%	110%	95.9%	115%	114%	125%	124%	125%	131%	75.2%	90.7%	92.9%	101%	74.8%	103%	100%	108%	106%	124%	114%	98.2%	98.7%	115%	122%	77.4%	133%	130%	132%	138%	143%	145%	132%
C\C1=C(\C=C(C#N)/C(=O)N1)C2=C[N]3C=CN=C3C=C2	66.9%	77.5%	81.6%	75%	82.2%	72.6%	71.8%	87.4%	91.4%	83.3%	94.7%	73.7%	88%	82.8%	96.8%	90.4%	73.6%	94.6%	85.9%	102%	99.2%	89.6%	79.6%	72.2%	87.6%	88%	81.8%	77.7%	86.6%	98.8%	86.9%	93.4%	94%
CC[C@H](C)[N]1C=C(C)C2=C1C=C(C=C2C(=O)NC\C3=C(C)\C=C(\C)NC3=O)C4=CC=C(N=C4)N5CCNCC5	106%	104%	112%	117%	114%	106%	112%	117%	113%	113%	99%	83.5%	105%	108%	102%	113%	108%	99%	109%	96.5%	95%	101%	101%	120%	115%	108%	110%	103%	107%	100%	107%	116%	104%
FC(F)c1nc2ccccc2n1-c1nc(N2CCOCC2)nc(N2CCOCC2)n1	85.1%	79%	83.6%	85.9%	73.8%	62.8%	61.3%	66.6%	49.7%	60%	38.7%	87.6%	80.7%	93.5%	84.4%	75.3%	70.5%	75.6%	63.1%	66%	62.4%	45.8%	84.2%	78.9%	71.9%	87.5%	72.2%	68.7%	60.6%	63.1%	66%	54.3%	37.1%
COc1cc2c(cc1OC)CC(=O)N(CCCN(C)C[C@H]1Cc3cc(OC)c(OC)cc31)CC2.Cl	102%	96.8%	116%	115%	112%	125%	114%	111%	112%	114%	105%	99.2%	105%	96.3%	114%	113%	107%	107%	95.7%	111%	92.9%	93.4%	93.6%	112%	108%	117%	104%	88.3%	105%	104%	103%	113%	92%
N[C@H](CSC(c1ccccc1)(c1ccccc1)c1ccccc1)C(=O)O	105%	99.3%	113%	99.4%	117%	97%	102%	94%	69.4%	54.9%	14.7%	44.8%	74.6%	75.2%	68.2%	71.1%	60.9%	69.8%	52.3%	47.2%	18.7%	2.79%	100%	105%	122%	86.5%	106%	95.6%	94%	82.1%	60.8%	40.1%	12.8%
